# Like-named read-outs stand apart in the source and are kept apart here. Marks after values point to notes of the source that are not given here.
# Key:
# [1] = system: Strain Aichi of type A human influenza virus; type: in vivo; conditions: 100 mg/kg, 24 and 2 hours prior and 3 days post infection
# [2] = system: hepatic P-450 cytochrome system; assay: Hexenal sleep duration in mice; type: in vivo; conditions: CBF1 mice; oral 3 days, 50 µg/kg; control 25.91 ± 1.57
# Experimental: Change in Hexenal sleep (HS) duration is the in vivo measurable index of hepatic P-450 cytochrome system condition.
# Studies were carried out on male mice of the lines BALB/c*h75, C57B1/6, CBA, DBA/2, first generation CBF1 and BDF1 hybrides, with initial mass 18-20 g, each group including 10 mice; and on mongrel male guinea pigs with initial mass 250-300 g, each group including 24 animals. All the test compounds (from II to LII) were administered orally in drinking water and for three days at doses 50 and 500 µg/kg. Hexenal hydrochloride at a dose […] of animal mass was administered 24 hours after the last drug administration, except for line BALB/c*h75 mice, which were administered Hexenal at a dose 60 µg/kg at the same terms, and guinea pigs for which Hexenal dose was 30 µg/kg. HS duration was determined in minutes.
# mongrel male rats = assay: Hypolipidemic activity: experimental hyperlipidemia (atherogenic load); conditions: atherogenic diet, oral last four days, 50 µg/kg; for HDL-CS / LDL-CS+ VLDL-CS / Total CS / Triglycerides: blood; for Kcs: cholesterol index;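 for all read-outs here: serum drawn 18 h after the final dose from rats deprived of food over that interval, groups of 10 animals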
# mongrel female rats = assay: Hepatoprotective activity: subchronic liver lesion (hepatitis) with CCl4; type: in vivo; conditions: rats, CCl4 hepatitis
# Experimental: Hepatoprotective properties of the compounds were studied on a model of subchronic liver lesion (hepatitis) with carbon quadrichloride.
# 70 mongrel female rats with initial body mass 190-200 g fed a standard vivarium ration, were used in experiment. Animals were divided into 7 groups (10 rats each): • Group 1 - control one; during the first four days of experiment animals were subcutaneously injected 0.2 ml vaseline oil; • Group 2 - during the first four days animals were subcutaneously injected 50% CCl4 solution in vaseline oil at a rate of 0.1 ml per 100 g body mass; • Group 3 - Legalon in a starch gel was administered orally for 8 days at a dose 30 mg/kg against the background of CCl4 administration; […] , resepectively, was administered in a way similar to group III; […] , resepectively, was administered in a way similar to group III.
# The test compounds and Legalon were administered to animals 1 hour prior to CCl4 administration. 24 hours after the last administration of the drugs, animals were decapitated.
# Activity of blood serum transaminases ALT and AST was assessed using the conventional Frenkel-Rightman method [Laboratory examination methods in the clinic. Ed. by Menshikov V.V. Moscow, Meditsina publishers (1969), 302 pp.].
# The published method [Rodionova L.P. Modification of blood serum trigyceride level determination method. Laboratomoye delo (Laboratory Matter) (1980), No 5, pp. 297-299] was used to determine blood serum TG level.
# Blood serum LP final product MDA was determined using the published method [Korobeinikova E.N. Modification of lipid peroxydation product determination in reaction with thiobarbituric acid. Laboratomoye delo (Laboratory Matter) (1989), No 7, pp. 8-10]. Concentration of TBA-active products was calculated using regression equation: C = 0.21 + 0.26D, [formula] where C - concentration of TBA-active products (in nM MDA per 1 ml of serum), D - index D535 -D580 (in optic density units).
# Total hepatic lipids were extracted using the modified Folch method [Cates M. Technology of Lipidology. Moscow, Mir publishers (1975), pp. 74-76]. Quantative content of lipid fractions was assessed with thin layer chromatography method (TLC) using the system of solvents hexane:diethyl ether:acetic acid at ratio 80:20:2. Zones of individual lipid fractions were determined using 10% alcohol solution of phosphoromolyobdenic acid which following elution were spectrophotometrically analysed at 600 nm.
# Hepatic MDA level was determined using the published method [Stalnaya I.D., Garishvili T.G. Malonic dialdehyde determination method using thiobarbituric acid. In: Modem methods in biochemistry. Moscow, Meditsina publishers (1977), pp. 66-69]. MDA quantity was calculated using molar extinction coefficient value of stained trimethynic complex formed by MDA with two TBA molecules: E = 1.56 × 10^5 (cm)^-1 × M^-1 [formula]
# [3] = system: Lewis pulmonary carcinoma (LLC); assay: Lewis pulmonary carcinoma growth; type: in vivo; conditions: mice with LLC, day 12; for Growth inhibition percent: compound in drinking water; for Tumor volume (mm^3): compound in drinking water from 24 hours after transplantation
# Experimental: Experiments were carried out on male mice with initial body mass 18-20 g. Each group included 10 animals. […] Administration of compounds II, III, IX, X, XII, XIV, XV, XVI, XVII, XIX, XXII, XLVII in drinking water was commenced 24 hours following transplantation and continued till the end of experiment. Effect of the compounds on Lewis rat pulmonary carcinoma (LLC) was estimated by day 12 of experiment by change in tumor volume expressed in mm^3.
# hydroxyl radical = assay: Hydroxyl radical formation in the Fenton reagent (chemiluminescence); type: biochemical
# Experimental: Active oxygen forms (AOF) of different nature were generated in the following systems: • A. Hydroxyl radical - in the mixture of FeSO4 with H2O2 (the Fenton reagent) [Halliwell B. Superoxide-dependent formation of hydroxyl radicals in the presence of iron salts. […] Incubation medium comprised 5 mM KH2PO4 (pH 7.4); 5 mM FeSO4; 2 mM luminol. H2O2 at final concentration 5 mM was introduced into a cuvette through a dispencer following background luminescence recording of the reagents' mixture. 5 to 10 ml of the test compounds dissolved in water were at needed concentration introduced into a cuvette.
# CL flash recording duration after mixing ingredients, depended on a particular process kinetics. For each system, CL light sum (mV) was determined in the control samples without preparations (I-) and in samples comprising respective concentrations of preparations (I+). To estimate CL inhibition (activation) degree, the I+/I- ratio (in relative units) was found in the studied systems.
# When H2O2 was introduced into phosphate buffer comprising iron sulfate, CL flash occured which was caused by formation of predominantly hydroxyl radical in the reaction mixture.
# [4] = blood serum, oral 8 days 30 mg/kg
# [5] = blood serum, oral 8 days, daily dose 30.0 mg/kg
smiles,measurement,setting,value
CCOC(=O)c1c(CSc2ccccc2)n(C)c2cc(Br)c(O)c(CN(C)C)c12 [Arbidol],"MLT, days",[1]; series with Control - 2 (9.1),13.88*^2 days
same,Survival rate in percent,[1]; series with Control - 2 (34.5),94.7*^2%
same,Protection degree in percent,[1]; series with Control - 2,60.2%
same,"MLT, days",[1]; series with control - 1 (5.76),9.22* days
same,Survival rate in percent,[1]; series with control - 1 (16.7),43.4* percent
same,Protection degree in percent,[1]; series with control - 1,26.7%
"Cl.O=C(O)CCCCC(=O)NCCc1c[nH]cn1 [IV, N-ADIPINYLHISTAMINE CHLOROHYDRATE]",Hexenal sleep duration (minutes),[2],20.39 ± 1.59* minutes
"CC(=O)NC(CC(=O)NCCc1c[nH]cn1)C(=O)O (stereo not drawn) [L, N-Acethyl-β -Aspartylhistamine]",HDL-CS,mongrel male rats,"31,0±2,1"
same,LDL-CS+ VLDL-CS,mongrel male rats,"63,1±2,4*^A"
same,Total CS,mongrel male rats,"94,1±2,1"
same,Triglycerides,mongrel male rats,"141,6±12,6**^A"
same,Kcs,mongrel male rats,"2,03±0,09***^A"
"CC(=O)NC(CC(=O)O)C(=O)NCCc1c[nH]cn1 (stereo not drawn) [LI, N-Acethyl- α-Aspartylhistamine]",HDL-CS,mongrel male rats,"39,8±1,6**^A"
same,LDL-CS+ VLDL-CS,mongrel male rats,"59,3±3,5*^A"
same,Total CS,mongrel male rats,"99,1±4,5"
same,Triglycerides,mongrel male rats,"132,1±17,4**^A"
same,Kcs,mongrel male rats,"1,49±0,07***^A"
"O=C1CC[C@@H](C(=O)NCCc2c[nH]cn2)N1 [LII, Pyroglutamylhistamine]",Hexenal sleep duration,[2],21.14 ± 1.39 min
"COc1cc(C2Oc3cc([C@H]4Oc5cc(O)cc(O)c5C(=O)[C@@H]4O)ccc3OC2CO)ccc1O (some centres unmarked) [Legalon, reference compound]","Cholesterol level, mg/100 ml VLDL-CS","mongrel female rats; blood serum, TG/5, oral 8 days 30 mg/kg",15.7 ± 1.1 p<0.05 mg/100 ml
same,"Cholesterol level, mg/100 ml LDL-CS","mongrel female rats; blood serum, calculated by formula, oral 8 days 30 mg/kg",20.1 ± 1.1 p<0.01 mg/100 ml
same,"Cholesterol level, mg/100 ml HDL-CS",mongrel female rats; [4],54.8 ± 2.5 mg/100 ml
same,"Cholesterol level, mg/100 ml total-CS",mongrel female rats; [4],90.9 ± 3.4 mg/100 ml
same,"TG level, mg/100ml",mongrel female rats; [4],78.0 ± 6.2 p<0.05 mg/100ml
same,"ALT, nM/dl",mongrel female rats; [5],622 ± 36 nM/dl
same,"AST, nM/dl",mongrel female rats; [5],531 ± 22 nM/dl
same,Lipid composition (in percent of total lipids) FCS,"mongrel female rats; liver, oral 8 days 30 mg/kg",15.0 ± 0.4 p<0.01% of total lipids
same,Lipid composition (in percent of total lipids) Phospholipids,"mongrel female rats; liver, oral 8 days 30 mg/kg",19.7 ± 1.1% of total lipids
same,Lipid composition (in percent of total lipids) Triglycerides,"mongrel female rats; liver, oral 8 days 30 mg/kg",44.1 ± 1.9% of total lipids
same,"Hepatic MDA, nM/l",mongrel female rats; 30.0 mg/kg,4.17 ± 0.31 p<0.001 nM/l
same,"Serum MDA, nM/l",mongrel female rats; 30.0 mg/kg,5.58 ± 0.15 nM/l
"O=C(O)CCCC(=O)NCCc1c[nH]c2ccc(OCc3ccccc3)cc12 [XIV, N-GLUTARYL-O-BENZYLSEROTONIN]",Growth inhibition percent,[3],68%
same,Tumor volume (mm^3),[3],779 ± 94** mm^3
"O=C(O)CCCC(=O)NCCN1CCOCC1 [XIX, N-GLUTARYL-4-(2-AMINOETHYL)MORPHOLINE]",Chemiluminiscence intensity (mV) + σn-1,"hydroxyl radical; 1 µM, control of the series as in the table",49089 ± 269 mV
same,relative effect: I+/I-,hydroxyl radical; 0.01 mM,0.77
same,Chemiluminiscence intensity (mV) + σn-1,"hydroxyl radical; 0.01 mM, control of the series as in the table",3846 ± 184 mV
same,relative effect: I+/I-,hydroxyl radical; 0.1 mM,0.68
same,Chemiluminiscence intensity (mV) + σn-1,"hydroxyl radical; 0.1 mM, control of the series as in the table",3377 ± 222 mV
same,relative effect: I+/I-,hydroxyl radical; 1 mM,0.13
same,Chemiluminiscence intensity (mV) + σn-1,"hydroxyl radical; 1 mM, control of the series 7839 ± 171, 1120 ± 163, 4974 ± 283 or 1332 ± 172",626 ± 56 mV
same,Growth inhibition percent,[3],28%
same,Tumor volume (mm^3),[3],994 ± 173 mm^3
